Measurements as given in patent publication US6197818A, “Drug for treating diabetic nephrosis” (Nanjing General Hospital of Nanjing Command, PLA, priority 1999, dated 2001).

Columns and labels:
[1] = system: Diabetic animal model of rat; assay: Suppression of renal hypertrophy by sodium rheinate in experimental diabetic rats (streptozotocin); type: in vivo, SD rats; conditions: for blood glucose level / Kidney Index (kidney weight/body weight ratio) / Kidney Weight: treated 1 mg/Kg/day Rhein-Na; for Kidney Index (kidney weight/body weight ratio) / Kidney Weight: 12th week
Method: Drug: aqueous solution of sodium rheinate at concentration of 0.1 g/L for oral
Diabetic animal model of rat: Adult female SD rats (Experimental Animal Center, Jinling Hospital, Nanjing) with body weights of 200 to 250 grams were used. Rats were made diabetic by an intra-abdominal injection of Streptozotocin (Sigma Chemical Co.; in 0.1 mmol/L citrate buffer, pH 4.5) in a dose of 25 mg/Kg/day for 5 days. Only rats with blood glucose level within the range of 13 to 25 mmol/L were recognized as the establishment of the diabetic mode.
(§1) The observation was focused on the changes of kidney weight and volume in diabetic rats treated by rhein.
The experiment was designed as the following:
Normal rats Diabetic rats
Control treated Control treated
Dosage of Rhein-Na, 0 1 0 1
Distilled water, ml/Kg/day 5 5 5 5

SD rats = assay: acute toxicity, half lethal dose (LD50); type: in vivo; conditions: natural product
[2] = acute toxicity, half lethal dose (LD50); type: in vivo; conditions: rat, in vivo; SD rats
[3] = solubility and stability of rhein; type: physicochemical
Source text: It remains steady in room temperature for more than one year. The general formula of rhein or the salt thereof is shown as the following: [drawing 2]

[4] = tolerability of oral rhein in volunteers; type: in vivo, human volunteers
Method: Of the thirty-six volunteers given rhein at dose of 200 mg/day (100 mg, b.i.d) for 3 days, only 5 persons experience gastro-intestinal disorders. Diarrhea occurred twice or thrice a day in three of these persons, and four times in only one person.

[5] = system: Diabetic animal model of rat; assay: Suppression of renal hypertrophy by rhein in experimental diabetic rats (streptozotocin); type: in vivo, SD rats; conditions: for blood glucose level / Kidney Index (kidney weight/body weight ratio) / Kidney Volume / Kidney Weight: rhein-treated 2 mg/Kg/day; for Kidney Index (kidney weight/body weight ratio) / Kidney Volume / Kidney Weight: 12th week
Method: The concentration of rhein is 0.2 g/L.
Rats were made diabetic by an intra-abdominal injection of Streptozotocin (Sigma Chemical Co.; in 0.1 mmol/L citrate buffer, pH 4.5) in a dose of 25 mg/Kg/day for 5 days.
as §1

diabetic nephropathy = assay: Clinical trial of rhein on diabetic nephropathy; type: in vivo, human diabetic patients
Method: Twenty-five diabetic patients diagnosed according to the standard of WHO where enrolled in this study. The fast blood glucose levels were above 250 mg/100 ml in these patients. Diabetic nephropathy was confirmed morphologically by renal biopsy, or with measurement of urinary protein or albumin excretion in each patient.
A yellow powder supplied in capsula containing 25 mg rhein. The dosage of 100 mg per day (50 mg twice a day) rhein was given orally as therapy. All patients were followed at regular intervals for measurement of serum creatinine values and urinary protein or albumin excretion at least for 3 months.

[6] = pharmacokinetic study of oral rhein, blood level; type: in vivo, human (volunteers)
Method: The blood level of rhein still kept at 200 to 500 ng/ml at 24th hour in volunteers.

[7] = system: kidney damage caused by diabetes; conditions: cited from earlier work
[8] = diabetic rats, 1 week after diabetic
[9] = diabetic rats, 4 weeks after diabetic
[10] = diabetic rats, pre-diabetic (baseline)
[11] = experimental diabetic rats, oral
[12] = of thirty-six volunteers, 200 mg/day (100 mg, b.i.d) for 3 days
[13] = Treatment after 3 months, 100 mg per day
[14] = of twenty-five, 100 mg per day, three months
[15] = patients treated with rhein, 100 mg per day

## O=C(O)c1cc(O)c2c(c1)C(=O)c1cccc(O)c1C2=O [sodium rheinate]
[1]; [8]
  blood glucose level: 21.82 mmol/L
[1]; [9]
  blood glucose level: 19.97 mmol/L
[1]; diabetic rats
  Kidney Index (kidney weight/body weight ratio): 5.68 ×10^-3
  Kidney Weight: 0.71 grams
[1]; [10]
  blood glucose level: 6.17 mmol/L
[1]; [11]
  hyperglycemia (in words): controlled or reduced effectively
[1]; normal rats, 1 week
  blood glucose level: 6.52 mmol/L
[1]; normal rats, 4 weeks
  blood glucose level: 6.48 mmol/L
[1]; normal rats
  Kidney Index (kidney weight/body weight ratio): 4.34 ×10^-3
  Kidney Weight: 0.59 grams
[1]; normal rats, pre-diabetic
  blood glucose level: 6.06 mmol/L

## O=C(O)c1cc(O)c2c(c1)C(=O)c1cccc(O)c1C2=O [rhein]
SD rats
  toxicity (in words): low toxicity and safe for therapy
[2]
  LD50: 3200 mg/kg
[3]; organic solvent
  solubility in organic solvent: soluble in organic solvent
[3]; room temperature
  stability (remains steady): more than one
[3]; water
  solubility in water: soluble slightly in water
[4]; [12]
  persons experiencing gastro-intestinal disorders: 5 persons
  persons with diarrhea four times a day: one
  persons with diarrhea twice or thrice a day: three
[4]; oral route, volunteers
  gastro-intestinal reactions (in words): not marked gastro-intestinal reactions
[5]; diabetic rats
  kidney index (in words): decrease the kidney index (kidney weight/body weight ratio) obviously
  renal hypertrophy (in words): able to control or suppress renal hypertrophy
  Kidney Index (kidney weight/body weight ratio): 4.76 ×10^-3
  Kidney Volume: 0.834 mL
  Kidney Weight: 0.93 grams
[5]; [8]
  blood glucose level: 20.32 mmol/L
[5]; [9]
  blood glucose level: 19.77 mmol/L
[5]; diabetic rats, 8 weeks after diabetic
  blood glucose level: 21.00 mmol/L
[5]; diabetic rats, 12 weeks after diabetic
  blood glucose level: 19.32 mmol/L
[5]; [10]
  blood glucose level: 6.23 mmol/L
[5]; [11]
  hyperglycemia (in words): controlled or reduced effectively
[5]; normal rats, 1 week
  blood glucose level: 5.92 mmol/L
[5]; normal rats, 4 weeks
  blood glucose level: 5.66 mmol/L
[5]; normal rats, 8 weeks
  blood glucose level: 6.07 mmol/L
[5]; normal rats
  Kidney Index (kidney weight/body weight ratio): 4.04 ×10^-3
  Kidney Volume: 0.804 mL
  Kidney Weight: 0.72 grams
[5]; normal rats, 12 weeks
  blood glucose level: 6.22 mmol/L
[5]; normal rats, pre-diabetic
  blood glucose level: 6.12 mmol/L
Diabetic nephropathy; 100 mg per day
  gastro-intestinal reactions as vomiting, diarrhea et al.: None
Diabetic nephropathy; 18 of twenty-five, 100 mg per day, three months
  share of patients with obvious decrement of urinary protein excretion: 72%
Diabetic nephropathy; [13]
  Change of urinary protein excretion: Decrease of 25%: 5 No.
  Change of urinary protein excretion: Decrease of 50%: 9 No.
  Change of urinary protein excretion: Decrease of 75%: 4 No.
  Change of urinary protein excretion: No change: 7 No.
Diabetic nephropathy; all patients, 100 mg per day
  tolerability (in words): tolerated
Diabetic nephropathy; diabetic nephropathy patients
  urinary albumin excretion (in words): ameliorate the urinary albumin excretion significantly
Diabetic nephropathy; diabetic patients
  urinary protein excretion (in words): could decrease the urinary protein excretion
Diabetic nephropathy; [14]
  patients with no change or increase of urinary protein excretion: seven
  patients with obvious decrement of urinary protein excretion: 18 patients
Diabetic nephropathy; [15]
  Blood routine test: normal
  liver function and renal function: no liver function abnormally and deterioration of renal function
[6]; human, blood, po, 24th hour, volunteers, single dose of 200 mg
  concentration at 24 h: 200 to 500 ng/mL
[6]; one single dose of 200 mg, health man
  time to peak blood level: one and half hours to three
[6]; oral
  absorption from gastro-intestinal trace: easily absorbed
  maintenance of blood concentration: maintains for a longer period

## insulin: the main medicament for its treatment is insulin at present
[7]
  effect on urinary glucose: can decrease the urinary glucose
[7]; such as renal hypertrophy
  effect on kidney damage caused by diabetes: no therapeutic effect
